The values below are quoted from earlier work in patent publication US20080138409A1, “OLANZAPINE PHARMACEUTICAL COMPOSITION” (priority 2006, published 2008).

SMILES strings stand for the structures.

For the data set the following is noted: pH 6.8; free base.

As for `Cc1cc2c(s1)Nc1ccccc1N=C2N1CCN(C)CC1` [Olanzapine], the solubility result is recorded as “about 0.02 mg/ml”.
